Patent US20240158446A1, “CYCLIC COMPOUND HAVING SELECTIVE INHIBITORY ACTION ON KRAS OVER HRAS AND NRAS” (CHUGAI SEIYAKU KABUSHIKI KAISHA, priority 2021, published 2024)

Tests used:
[1] = molecular target: GDP-bound HRAS wild-type protein (Homo sapiens, UniProt P01112); experiment: Binding to HRAS by surface plasmon resonance (SPR), Single Cycle Kinetics; conditions: SPR, GDP-bound HRAS wild-type protein vs GDP-bound KRAS wild-type protein
[2] = molecular target: GDP-bound NRAS wild-type protein (Homo sapiens, UniProt P01111); experiment: Binding to NRAS by surface plasmon resonance (SPR), Single Cycle Kinetics; conditions: SPR, GDP-bound NRAS wild-type protein vs GDP-bound KRAS wild-type protein
Chain of GDP-bound NRAS wild-type protein (P01111 whole entry): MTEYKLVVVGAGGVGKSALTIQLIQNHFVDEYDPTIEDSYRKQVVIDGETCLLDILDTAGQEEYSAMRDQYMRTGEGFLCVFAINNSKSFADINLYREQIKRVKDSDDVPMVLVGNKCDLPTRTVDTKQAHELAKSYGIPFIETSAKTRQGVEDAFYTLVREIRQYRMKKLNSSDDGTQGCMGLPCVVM

[3] = molecular target: GDP-bound KRAS wild-type protein (Homo sapiens, UniProt P01116); experiment: Binding to KRAS by surface plasmon resonance (SPR), Single Cycle Kinetics; conditions: SPR, Single Cycle Kinetics, GDP-bound KRAS wild-type protein; read-out: KRAS KD
Chain of GDP-bound KRAS wild-type protein (P01116 whole entry): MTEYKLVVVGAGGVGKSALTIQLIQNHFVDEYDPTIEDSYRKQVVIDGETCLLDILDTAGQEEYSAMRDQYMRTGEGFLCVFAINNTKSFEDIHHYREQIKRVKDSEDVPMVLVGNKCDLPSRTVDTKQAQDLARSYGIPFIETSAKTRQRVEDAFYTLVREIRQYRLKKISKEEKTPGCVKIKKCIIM

[4] = system: human lung cancer strain NCI-H441;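 further: cell proliferation inhibition after four days measured by CellTiter-Glo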

Chain of GDP-bound HRAS wild-type protein (P01112 whole entry): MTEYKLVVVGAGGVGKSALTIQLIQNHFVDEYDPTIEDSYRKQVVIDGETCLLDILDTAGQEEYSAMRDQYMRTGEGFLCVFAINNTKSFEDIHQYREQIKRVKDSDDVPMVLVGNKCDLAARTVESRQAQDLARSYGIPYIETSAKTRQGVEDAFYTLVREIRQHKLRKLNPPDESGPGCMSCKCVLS

| SMILES | HRAS/KRAS (ratio of KD value for HRAS to KD value for KRAS) [1] | NRAS/KRAS (ratio of KD value for NRAS to KD value for KRAS) [2] | Kd [3] | IC50 [4] |
| --- | --- | --- | --- | --- |
| CC[C@H](C)[C@@H]1NC(=O)[C@H](CC)N(C)C(=O)C[C@@H](C(=O)N(C)C)N(C)C(=O)[C@H](C2CCCC2)N(C)C(=O)C2(CCC2)NC(=O)[C@H](COCCC(C)C)N(C)C(=O)[C@H](CCc2cc(F)c(C(F)(F)F)c(F)c2)NC(=O)CN(C)C(=O)[C@H](Cc2ccc(C(F)(F)F)cc2)N2CC/C=C\C[C@@H](C2=O)N(C)C(=O)CN(C)C1=O [PP1148] | A (a compound having 10 or more and less than 20 is denoted as A) | A (a compound having 10 or more and less than 20 is denoted as A) | 1.2 nM | 357 nM |
| CC[C@H](C)[C@@H]1NC(=O)[C@H](CC)N(C)C(=O)C[C@@H](C(=O)N(C)C)N(C)C(=O)[C@H](C2CCCC2)N(C)C(=O)C2(CCC2)NC(=O)[C@H](CC2CCCCC2)N(C)C(=O)[C@H](CCc2cc(F)c(C(F)(F)F)c(F)c2)NC(=O)CN(C)C(=O)[C@H](Cc2ccc(C(F)(F)F)cc2)N2CC/C=C\C[C@@H](C2=O)N(C)C(=O)CN(C)C1=O [PP1149] | A (a compound having 10 or more and less than 20 is denoted as A) | A (a compound having 10 or more and less than 20 is denoted as A) | 0.43 nM | 173 nM |
| CCCC[C@H]1C(=O)NC2(CCC2)C(=O)N(C)[C@@H](C2CCCC2)C(=O)N(C)[C@H](C(=O)N(C)C)CC(=O)N(C)[C@@H](CC)C(=O)N[C@@H]([C@@H](C)CC)C(=O)N(C)CC(=O)N(C)[C@H]2C/C=C\CCN(C2=O)[C@@H](Cc2ccc(C(F)(F)F)cc2)C(=O)N(C)CC(=O)N[C@@H](CCc2cc(F)c(C(F)(F)F)c(F)c2)C(=O)N1C [PP1150] | A (a compound having 10 or more and less than 20 is denoted as A) | AA (a compound having 20 or more is denoted as AA) | 0.17 nM | 42.7 nM |
| CCO[C@@H]1C[C@H]2C(=O)NC3(CCC3)C(=O)N(C)[C@@H](C3CCCC3)C(=O)N(C)[C@H](C(=O)N(C)C)CC(=O)N(C)[C@@H](Cc3ccccc3C#N)C(=O)N[C@@H]([C@@H](C)CC)C(=O)N(C)CC(=O)N(C)[C@H]3CCCCCN(C3=O)[C@@H](Cc3ccc(F)cc3)C(=O)N(C)CC(=O)N[C@@H](CCc3cc(F)c(C(F)(F)F)c(F)c3)C(=O)N2C1 [PP1155] | B (a compound having 3 or more and less than 10 is denoted as B) | B (a compound having 3 or more and less than 10 is denoted as B) | 0.15 nM | 73.1 nM |
| CCO[C@@H]1C[C@H]2C(=O)NC3(CCC3)C(=O)N(C)[C@@H](C3CCCC3)C(=O)N(C)[C@H](C(=O)N(C)C)CC(=O)N(C)[C@@H](Cc3cccc(C#N)c3)C(=O)N[C@@H]([C@@H](C)CC)C(=O)N(C)CC(=O)N(C)[C@H]3CCCCCN(C3=O)[C@@H](Cc3ccc(F)cc3)C(=O)N(C)CC(=O)N[C@@H](CCc3cc(F)c(C(F)(F)F)c(F)c3)C(=O)N2C1 [PP1156] | B (a compound having 3 or more and less than 10 is denoted as B) | B (a compound having 3 or more and less than 10 is denoted as B) | 0.063 nM | 33.7 nM |
| CCO[C@@H]1C[C@H]2C(=O)NC3(CCC3)C(=O)N(C)[C@@H](C3CCCC3)C(=O)N(C)[C@H](C(=O)N(C)C)CC(=O)N(C)[C@@H](Cc3ccc(C#N)cc3)C(=O)N[C@@H]([C@@H](C)CC)C(=O)N(C)CC(=O)N(C)[C@H]3CCCCCN(C3=O)[C@@H](Cc3ccc(F)cc3)C(=O)N(C)CC(=O)N[C@@H](CCc3cc(F)c(C(F)(F)F)c(F)c3)C(=O)N2C1 [PP1157] | B (a compound having 3 or more and less than 10 is denoted as B) | B (a compound having 3 or more and less than 10 is denoted as B) | 0.061 nM | 30.3 nM |
| CCO[C@@H]1C[C@H]2C(=O)NC3(CCC3)C(=O)N(C)[C@@H](C3CCCC3)C(=O)N(C)[C@H](C(=O)N(C)C)CC(=O)N(C)[C@@H](Cc3ccc(Cl)c(Cl)c3)C(=O)N[C@@H]([C@@H](C)CC)C(=O)N(C)CC(=O)N(C)[C@H]3CCCCCN(C3=O)[C@@H](Cc3ccc(F)cc3)C(=O)N(C)CC(=O)N[C@@H](CCc3cc(F)c(C(F)(F)F)c(F)c3)C(=O)N2C1 [PP1158] | B (a compound having 3 or more and less than 10 is denoted as B) | B (a compound having 3 or more and less than 10 is denoted as B) | 0.18 nM | 57.5 nM |
| CCCO[C@@H]1C[C@H]2C(=O)NC3(CCC3)C(=O)N(C)[C@@H](C3CCCC3)C(=O)N(C)[C@H](C(=O)N3CCOCC3)CC(=O)N(C)[C@@H](CC(C)C)C(=O)N[C@@H]([C@@H](C)CC)C(=O)N(C)CC(=O)N(C)[C@H]3CCCCN(C3=O)[C@@H](Cc3ccc(C(F)(F)F)cc3)C(=O)N(C)CC(=O)N[C@@H](CCc3cc(F)c(C(F)(F)F)c(F)c3)C(=O)N2C1 [PP1159] | B (a compound having 3 or more and less than 10 is denoted as B) | C (A compound having a KD ratio of 0.1 or more and less than 3 is denoted as C) | 0.036 nM | 13 nM |
| CC[C@H](C)[C@@H]1NC(=O)[C@H](CC(C)C)N(C)C(=O)C[C@@H](C(=O)N2CCOCC2)N(C)C(=O)[C@H](C2CCCC2)N(C)C(=O)C2(CCC2)NC(=O)[C@@H]2C[C@@H](OCC(C)C)CN2C(=O)[C@H](CCc2cc(F)c(C(F)(F)F)c(F)c2)NC(=O)CN(C)C(=O)[C@H](Cc2ccc(C(F)(F)F)cc2)N2CCCC[C@@H](C2=O)N(C)C(=O)CN(C)C1=O [PP1160] | B (a compound having 3 or more and less than 10 is denoted as B) | B (a compound having 3 or more and less than 10 is denoted as B) | 0.032 nM | 18.4 nM |
| CCO[C@@H]1C[C@H]2C(=O)NC3(CCC3)C(=O)N(C)[C@@H](C3CCCC3)C(=O)N(C)[C@H](C(=O)N3CCOCC3)CC(=O)N(C)[C@@H](Cc3cccs3)C(=O)N[C@@H]([C@@H](C)CC)C(=O)N(C)CC(=O)N(C)[C@H]3CCCCCN(C3=O)[C@@H](Cc3ccc(C(F)(F)F)cc3)C(=O)N(C)CC(=O)N[C@@H](CCc3cc(F)c(C(F)(F)F)c(F)c3)C(=O)N2C1 [PP1163] | B (a compound having 3 or more and less than 10 is denoted as B) | B (a compound having 3 or more and less than 10 is denoted as B) | 0.59 nM | 93.3 nM |
| CCO[C@@H]1C[C@H]2C(=O)NC3(CCC3)C(=O)N(C)[C@@H](C3CCCC3)C(=O)N(C)[C@H](C(=O)N3CCOCC3)CC(=O)N(C)[C@@H](Cc3ccsc3)C(=O)N[C@@H]([C@@H](C)CC)C(=O)N(C)CC(=O)N(C)[C@H]3CCCCCN(C3=O)[C@@H](Cc3ccc(C(F)(F)F)cc3)C(=O)N(C)CC(=O)N[C@@H](CCc3cc(F)c(C(F)(F)F)c(F)c3)C(=O)N2C1 [PP1164] | B (a compound having 3 or more and less than 10 is denoted as B) | B (a compound having 3 or more and less than 10 is denoted as B) | 0.52 nM | 95.9 nM |
| CCO[C@@H]1C[C@H]2C(=O)NC3(CCC3)C(=O)N(C)[C@@H](C3CCCC3)C(=O)N(C)[C@H](C(=O)N3CCOCC3)CC(=O)N(C)[C@@H](Cc3ccccc3C#N)C(=O)N[C@@H]([C@@H](C)CC)C(=O)N(C)CC(=O)N(C)[C@H]3CCCCCN(C3=O)[C@@H](Cc3ccc(C(F)(F)F)cc3)C(=O)N(C)CC(=O)N[C@@H](CCc3cc(F)c(C(F)(F)F)c(F)c3)C(=O)N2C1 [PP1165] | B (a compound having 3 or more and less than 10 is denoted as B) | A (a compound having 10 or more and less than 20 is denoted as A) | 1.5 nM | 295 nM |
| CCO[C@@H]1C[C@H]2C(=O)NC3(CCC3)C(=O)N(C)[C@@H](C3CCCC3)C(=O)N(C)[C@H](C(=O)N3CCOCC3)CC(=O)N(C)[C@@H](Cc3ccc(C#N)cc3)C(=O)N[C@@H]([C@@H](C)CC)C(=O)N(C)CC(=O)N(C)[C@H]3CCCCCN(C3=O)[C@@H](Cc3ccc(C(F)(F)F)cc3)C(=O)N(C)CC(=O)N[C@@H](CCc3cc(F)c(C(F)(F)F)c(F)c3)C(=O)N2C1 [PP1167] | B (a compound having 3 or more and less than 10 is denoted as B) | B (a compound having 3 or more and less than 10 is denoted as B) | 0.5 nM | 134 nM |
| CCO[C@@H]1C[C@H]2C(=O)NC3(CCC3)C(=O)N(C)[C@@H](C3CCCC3)C(=O)N(C)[C@H](C(=O)N3CCOCC3)CC(=O)N(C)[C@@H](Cc3ccc(Cl)c(Cl)c3)C(=O)N[C@@H]([C@@H](C)CC)C(=O)N(C)CC(=O)N(C)[C@H]3CCCCCN(C3=O)[C@@H](Cc3ccc(C(F)(F)F)cc3)C(=O)N(C)CC(=O)N[C@@H](CCc3cc(F)c(C(F)(F)F)c(F)c3)C(=O)N2C1 [PP1168] | A (a compound having 10 or more and less than 20 is denoted as A) | A (a compound having 10 or more and less than 20 is denoted as A) | 1.8 nM | 338 nM |
